The test system of assay [1] is apomorphine-induced circling in rats pretreated with LPS infused into the unilateral striatum. Description: Inhibitory effect on the apomorphine-induced circling in rats pretreated with LPS infused into the unilateral striatum. It is filed as in vivo, rat. Particulars: for Number of ipsilateral circlings (mean ± S.E.): 3 times, LPS 5 μg, apomorphine 1 mg/kg s.c., 30-minute period, n=4. The method, then: Inhibitory effect on the apomorphine-induced circling in rats pretreated with LPS infused into the unilateral striatum Male Wistar rats (8-9 weeks old) weighing 250-280 g at the operation for LPS infusion were submitted to the experiment. Throughout the experimental period, the animals were group-fed in a vivarium controlled at 24±1° C. and 55±1% R.H., with a light-dark cycle of 12 hr (7:00-19:00 ON) and free access to food (Clea Japan, Inc., CE-2 pellets) and water (tap water). Under pentobarbital (50 mg/kg, i.p.) anesthesia, the rat's head was immobilized in David Kopf's brain stereotaxic apparatus for small animal use and with reference to Pellegrino & Cushman's brain atlas, a 30 G stainless steel needle was indwelled in the unilateral striate body (A8.2, L2.8, H4.3). The infusion amount of LPS was set at 5 μg. LPS was dissolved in 1 μl of phosphate-buffered saline (PBS, pH 7.2) and the solution was infused gradually at a speed of 0.2 μl/min. The infusion needle was kept in position till 3 minutes following infusion and withdrawn only after sufficient diffusion of the drug solution had taken place. After 7-8 days postoperatively, 1 mg/kg of apomorphine was administered subcutaneously and the number of induced circling behavior during a 30-minute period immediately following administration were determined with an automatic counter. Compound A was suspended in 5% aqueous gum arabic solution and the suspension was administered either orally or intraperitoneally at a dose rate of 0.2 ml per 100 g rat body weight. This administration was carried out 3 times, namely 30 minutes before infusion of 5 μg LPS and 3 and 24 hours after the infusion. As a control, physiological saline solution alone was administered intraperitoneally.

Assay [2] deals with rat mixed cerebral cell culture. As to the kind of experiment: Neutralizing effect on LPS-induced cytotoxicity in a rat mixed cerebral cell culture system (LIC assay), MTT method. It is filed as cell-based. Particulars: concentration giving a recovery rate of 50%, usually 4-5 days incubation, read-out: ED50 (the source's name). As for the experimental part: Neutralizing effect on lipopolysaccharide (LPS)--induced cytotoxicity in a rat mixed cerebral cell culture system (LIC assay)
LPS, a substance known to activate glial cells (astrocytes, microglia), was added to a rat mixed cerebral cell culture system and the compounds which would neutralize the cytotoxicity induced by LPS were screened by the following method.
(1) Neonatal rat mixed cerebral cell culture
From neonatal Crj:CD (SD) rats (1-3 days old, Charles-River Japan, Ltd.), the brains were isolated and placed in ice-cold D-MEM/10% FCS (Dulbecco's cell culture minimal essential medium supplemented with 10% of fetal calf serum, 100 units/ml of penicillin and 100 μg/ml of streptomycin). Then, mixed cerebral cell cultures were carried out in the following steps.
1. The cerebrums were separated from the enucleated brains and the meninges was removed under the stereoscopic microscope.
2. The cerebrums were placed in a nylon-mesh (100-200 μm) bag to filter with the aid of a rubber policeman.
3. Using ice-cold D-MEM/10% FCS, the cells were washed 3 times (1000 rpm, 8 min.). Then, this cell suspension was filtered through a cell strainer (40 μm mesh, Falcon 2340) and the number of viable cells was counted by the trypan blue method.
4. The cells, were seeded in wells of a 96-well microtiter plate (Nunc) at a cell density of 1×10^5 cells/100 μl/well, and started a cell culture at 37° C.
5. One week later, 100 μl/well of D-MEM/10% FCS was added.
6. The plate was further incubated for about 1-2 weeks and the neutralizing activity of the test compound was evaluated by the following method.
(2) Evaluation of neutralizing activity in LPS-induced cytotoxicity
1. Following the rat mixed cerebral cell culture described in (1) (after 2-3 weeks of incubation), the medium was discarded from the respective wells of the 96-well microtiter plate, and 50 μl/well of fresh D-MEM/2% FCS was added.
2. A test sample and LPS (Difco, E. coli 011: B4, Bacto) of a suitable concentration, 25 μl each per well, were respectively added. D-MEM/2% FCS was used as the medium.
As the test sample, each of the compounds shown in Table 32 was dissolved in DMSO at a concentration of 10 ^-2 M and the solution was diluted with D-MEM/2% FCS and submitted for assay.
3. After a suitable period (usually 4-5 days) of incubation, the degree of cytotoxic effect was assessed by the microscopic observation, and MTT method.
(3) MTT [3-(4,5-dimethylthiazol-2-yl)-2,5-diphenyltetra zolium bromide] method
Ten μl of MTT solution (5 mg/ml, Sigma) dissolved in phosphate-buffered saline was added to each well. After 4-6 hours of incubation (37° C., under 10% CO2), 100 μl/well of 0.01N-hydrochloric acid containing 10% SDS was added, whereby the formed formazan was dissolved. After complete dissolution, the absorbance (540-590 nm) was measured for each well.
The ED50 values were determined by calculating the recovery rates by means of the following equation and plotting the concentrations of compounds giving a recovery rate of 50% on graph paper.
Recovery rate (%)=(C-B)×100/(A-B)
[A: the absorbance at 550 nm of the control well to which only the medium had been added
B: the absorbance at 550 nm of the well to which LPS had been added
C: the absorbance at 550 nm of the well to which both LPS and the test compound had been added]
A general note: Tetrazolium dyes change colour on reduction, which living cells bring about.

The subject of the next assay is TNFα. As to the kind of experiment: LPS-induced TNFα production in the rat mixed cerebral cell culture system (ELISA). Particulars: LPS 10 μg/ml, 24 hours. The format is cell-based. The method, then:
Rat mixed cerebral cell cultures on day 15 after starting cell cultures were used. After removal of the medium, LPS (E. coli 011: B4, Bacto) (Difco Laboratories), 10 μg/ml, and Compound A, 10^-6 or 10^-7 M, were simultaneously added and the final volume was adjusted to 100 μl. After 24 hours of incubation at 37° C., the culture supernatant was collected as a sample for ELISA. The assay for determining TNFα amount was made using Mouse TNFα ELISA Kit (Genzyme) in accordance with its assay protocol.
On the technique in general: An ELISA detects its analyte on a solid surface through an enzyme-linked reagent.

The subject of assay [3] is NO (nitric oxide) production. Description: Inhibitory effect on LSP-induced NO (nitric oxide) production in a rat mixed cerebral cell culture system. The format is cell-based. Particulars: 120 h, LSP 5 μg/ml, 5 days, combined NO3^- and NO2^- in culture supernatant, read-out: inhibition concentration (IC50) against LSP-induced NO production. The method, then: Inhibitory effect on LSP-induced NO (nitric oxide) production in a rat mixed cerebral cell culture system
(1) Rat mixed cerebral cell culture
Rat mixed cerebral cell cultures were prepared by the procedure described in Experimental Example 1.
1. Twenty (20) days after initiation of rat mixed cerebral cell culture, the medium was removed from each well of the 96-well microtiter plate and, instead, 125 μl/well of D-MEM/2% FCS containing 5 μg/ml (final concentration) of LSP (Difco, E. coli 011: B4, Bacto) and a suitable dilution of the test compound was added. As the test sample, a stock DMSO solution of 10^-2 M concentration was prepared and diluted with D-MEM/2% FCS.
2. After a further 5 days of cell culture, the combined amount of NO3^- and NO2^- in the culture supernatant was determined with the NO3^- NO2^- Assay Kit (Cayman Chemical, Catalog No. 780001, U.S.A.). The assays were carried out in accordance with the accompanying protocol.
The IC50 values were determined from a plot of the concentrations of the test compound which caused a 50% decrease in the combined amount of […] and NO3^- in the culture supernatant as compared with the well to which LSP alone had been added in a final concentration of 5 μg/ml without addition of compound A.

Regarding `COc1ccc(C(CCCCC(=O)NO)C2=C(C)C(=O)c3ccccc3C2=O)cc1` (stereo not shown) [Compound A, 6-(3-Methyl-1,4-naphthoquinon-2-yl)-6-(4-methoxyphenyl)hexanohydroxamic acid], the “Number of ipsilateral circlings (mean ± S.E.)” value in assay [1] (i.p. (3 mg/kg)) is listed as 44 ± 15; in assay [1] (p.o. (30 mg/kg)), 65 ± 21. In addition, the “LPS-induced injury of the unilateral striatum (in words)” value in assay [1] (rat, in vivo) was “significantly attenuated”. In assay [2], the EC50 was 20 nM. Further, the TNFα in the assay with TNFα (Compound A 10^-6 M) amounted to 230 pg/mL; in the assay on TNFα (Compound A 10^-7 M), 790 pg/mL. Further, the IC50 in assay [3] turned out to be 80 nM.

Values taken from US5804601A, “Aromatic hydroxamic acid compounds, their production and use” (Takeda Chemical Industries, Ltd., priority 1995, dated 1998).
